Results: ChEMBL document CHEMBL5033993, “Design, Synthesis, and Evaluation of o-(Biphenyl-3-ylmethoxy)nitrophenyl Derivatives as PD-1/PD-L1 Inhibitors with Potent Anticancer Efficacy In Vivo” (J Med Chem, 2021)
Calls of active or inactive are those of the source. No cut-off for these calls is given here.

Legend:
Lewis lung carcinoma [1] = test: Immunostimulatory activity in mouse lewis lung carcinoma cells allografted in C57BL6 mouse assessed as increase in infiltration of T cells at 2 to 5 mg/kg, ig for 21 days by Flow cytometric analysis; format: functional, organism-based; settings: dose 2-5 mg/kg, time 21.0 day
[2] = Anti-tumor activity against mouse lewis lung carcinoma cells allografted in C57BL6 mouse assessed as reduction in tumor growth at 5 mg/kg, ig for 21 days relative to control; format: functional; settings: po, 504 h, time 21 day, read-out: TGI
T-cell [3] = test: Cytotoxicity against C57BL6 mouse lymphnode T cell cells assessed as reduction in cell viability at 3000 nM and measured after 24 to 72 hrs by MTT assay; format: cell-based; settings: 3 µM, time 24-72 hrs
Mus musculus [4] = test: Toxicity in C57BL6 mouse allografted with mouse lewis lung carcinoma cells assessed as reduction body weight at 5 mg/kg, ig for 21 days; format: organism-based; settings: in vivo, po, 504 h, time 21 day
Lewis lung carcinoma [5] = test: Anti-tumor activity against mouse lewis lung carcinoma cells allografted in C57BL6 mouse assessed as reduction in tumor growth at 2 to 5 mg/kg, ig for 21 days; format: functional, organism-based; settings: dose 2-5 mg/kg, time 21.0 day
PBMC [6] = test: Upregulation of IFNgamma protein expression in CD3/CD28/PD-L1 stimulated PBMC (unknown origin) at 0.3 to 30 nM by ELISA; format: functional, tissue-based; settings: Homo sapiens, dose 0.3-30 nM
T-cell [7] = test: Upregulation of IFNgamma protein expression in CON-A stimulated C57BL6 mouse lymphnode T cell co-cultured with Lewis lung carcinoma cell line at 0.3 to 30 nM by ELISA; format: functional, tissue-based; settings: dose 0.3-30 nM
Lewis lung carcinoma [8] = test: Anti-tumor activity against mouse lewis lung carcinoma cells allografted in C57BL6 mouse assessed as reduction PCNA protein expression level at 2 to 5 mg/kg, ig for 21 days by immunohistochemistry analysis; format: functional, organism-based; settings: dose 2-5 mg/kg, time 21.0 day
Lewis lung carcinoma [9] = test: Induction of apoptosis in mouse lewis lung carcinoma cells allografted in C57BL6 mouse assessed as Increase in TUNEL positive cells at 2 to 5 mg/kg, ig for 21 days by TUNEL assay; format: functional, organism-based; settings: dose 2-5 mg/kg, time 21.0 day
Lewis lung carcinoma [10] = test: Immunostimulatory activity in mouse lewis lung carcinoma cells allografted in C57BL6 mouse assessed as increase in infiltration of IFNgamm+/CD4+ cells at 2 to 5 mg/kg, ig for 21 days by Flow cytometric analysis; format: functional, organism-based; settings: dose 2-5 mg/kg, time 21.0 day
Mus musculus [11] = test: Upregulation of IFNgamma protein expression in C57BL6 mouse serum allografted with mouse lewis lung carcinoma cells at 2.5 to 5 mg/kg, ig for 21 days by ELISA; format: functional, organism-based; settings: dose 2.5-5 mg/kg, time 21.0 day
[12] = biological target: T1, Programmed cell death protein 1/Programmed cell death 1 ligand 1 (Homo sapiens, UniProt Q15116+Q9NZQ7); test: Inhibition of human PD-1/PD-L1 interaction assessed as disruption of PD-1/PD-L1 complex incubated for 2 hrs by Tag-1 Eu3+ and anti-Tag2-XL665 based HTRF assay; format: protein-complex assay
T1 sequence (Q15116 whole entry): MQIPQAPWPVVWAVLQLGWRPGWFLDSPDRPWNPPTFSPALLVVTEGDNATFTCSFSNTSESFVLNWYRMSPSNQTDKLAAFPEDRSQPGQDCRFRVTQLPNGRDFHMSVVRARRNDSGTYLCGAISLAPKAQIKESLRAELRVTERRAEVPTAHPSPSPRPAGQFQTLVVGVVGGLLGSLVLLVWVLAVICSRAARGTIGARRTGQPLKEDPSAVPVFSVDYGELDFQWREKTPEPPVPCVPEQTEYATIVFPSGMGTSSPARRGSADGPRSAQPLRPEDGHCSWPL
T1 sequence (Q9NZQ7 whole entry): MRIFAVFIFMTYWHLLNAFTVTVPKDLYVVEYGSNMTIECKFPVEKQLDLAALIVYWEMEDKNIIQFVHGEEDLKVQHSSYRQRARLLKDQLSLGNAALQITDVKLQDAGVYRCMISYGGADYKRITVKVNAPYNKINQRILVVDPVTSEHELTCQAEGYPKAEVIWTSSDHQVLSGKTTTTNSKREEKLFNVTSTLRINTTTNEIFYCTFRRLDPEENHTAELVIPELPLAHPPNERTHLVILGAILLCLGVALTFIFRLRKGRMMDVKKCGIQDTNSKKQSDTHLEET

[13] = Anti-tumor activity against mouse lewis lung carcinoma cells allografted in C57BL6 mouse assessed as reduction in tumor growth at 2 mg/kg, ig for 21 days relative to control; format: functional; settings: po, 504 h, time 21 day, read-out: TGI
Mus musculus [14] = test: Toxicity in C57BL6 mouse allografted with mouse lewis lung carcinoma cells assessed as reduction body weight at 2 mg/kg, ig for 21 days; format: organism-based; settings: in vivo, po, 504 h, time 21 day
[15] = biological target: Programmed cell death 1 ligand 1 (Mus musculus) (UniProt Q9EP73); test: Binding affinity to PDL1 in mouse lewis lung carcinoma cells assessed as thermal stability at 3 nM at 43 to 70 degC after 12 hrs by CESTA analysis; settings: Lewis lung carcinoma cell line
Sequence of Programmed cell death 1 ligand 1 (Mus musculus) (Q9EP73 whole entry): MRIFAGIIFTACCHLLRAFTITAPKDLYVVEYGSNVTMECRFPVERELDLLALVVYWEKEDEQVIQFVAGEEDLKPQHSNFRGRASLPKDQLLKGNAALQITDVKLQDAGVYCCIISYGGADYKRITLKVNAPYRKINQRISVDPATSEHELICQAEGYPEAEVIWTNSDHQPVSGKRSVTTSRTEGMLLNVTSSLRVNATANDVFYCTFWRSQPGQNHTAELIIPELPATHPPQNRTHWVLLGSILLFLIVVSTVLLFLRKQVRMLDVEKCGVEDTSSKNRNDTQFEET

[16] = Cytotoxicity against mouse lewis lung carcinoma cells assessed as reduction in cell viability at 0.3 to 3000 nM and measured after 24 to 72 hrs by MTT assay; format: cell-based; settings: 3 µM, dose lower 0.3 nM, time lower 24 hrs, dose upper 3000 nM, time upper 72 hrs
Lewis lung carcinoma [17] = test: Immunostimulatory activity in mouse lewis lung carcinoma cells allografted in C57BL6 mouse assessed as increase in infiltration of total immune cells at 2 to 5 mg/kg, ig for 21 days by Flow cytometric analysis; format: functional, organism-based; settings: dose 2-5 mg/kg, time 21.0 day
[18] = biological target: Programmed cell death 1 ligand 1 (Mus musculus) (UniProt Q9EP73); test: Binding affinity to PDL1 in mouse lewis lung carcinoma cells assessed as thermal stability at 0.1 to 100 nM at 58 degC after 12 hrs by CESTA analysis; format: tissue-based; settings: Lewis lung carcinoma cell line, dose 0.1-100 nM
Lewis lung carcinoma [19] = test: Immunostimulatory activity in mouse lewis lung carcinoma cells allografted in C57BL6 mouse assessed as increase in infiltration of CD8+ cells at 2 to 5 mg/kg, ig for 21 days by Flow cytometric analysis; format: functional, organism-based; settings: dose 2-5 mg/kg, time 21.0 day
PBMC [20] = test: Induction of immuno-regulatory activity in CD3/CD28/PD-L1 stimulated PBMC (unknown origin) at 0.3 to 30 nM by Western blot analysis; format: functional, tissue-based; settings: Homo sapiens, dose 0.3-30 nM
Lewis lung carcinoma [21] = test: Immunostimulatory activity in mouse lewis lung carcinoma cells allografted in C57BL6 mouse assessed as increase in infiltration of CD8+/CD45+/CD3+ cells at 2 to 5 mg/kg, ig for 21 days by Flow cytometric analysis; format: functional, organism-based; settings: dose 2-5 mg/kg, time 21.0 day
[22] = biological target: T1, Programmed cell death protein 1/Programmed cell death 1 ligand 1; test: Potency index, ratio of BMS-202 IC50 to test compound IC50 for inhibition of human PD-1/PD-L1 interaction assessed as disruption of PD-1/PD-L1 complex incubated for 2 hrs by Tag-1 Eu3+ and anti-Tag2-XL665 based HTRF assay; format: protein-complex assay

In the case of `Cc1c(COc2cc(OCc3cccc(C#N)c3)c(CN[C@H](C(=O)O)[C@@H](C)O)cc2[N+](=O)[O-])cccc1-c1ccccc1`, the Activity (Lewis lung carcinoma [1]) is reported as “Active”, the inhibition in vivo at 5 mg/kg [2] is reported as 48.5% and the Activity (T-cell [3]) is reported as “Non-Toxic”. For the same molecule, the Activity (Mus musculus [4]) was “Non-Toxic”, the TGI (Lewis lung carcinoma [5]) was “Dose-Dependent Effect” and the Activity (PBMC [6]) was “Dose-Dependent Effect”. For the same molecule, the Activity (T-cell [7]) was “Dose-Dependent Effect”, the Activity (Lewis lung carcinoma [8]) was “Dose-Dependent Effect” and the Activity (Lewis lung carcinoma [9]) was “Dose-Dependent Effect”. The Activity (Lewis lung carcinoma [10]) was “Active”, the Activity (Mus musculus [11]) was “Dose-Dependent Effect” and the IC50 [12] was 2.7 nM. The inhibition in vivo at 2 mg/kg [13] was 17.3%, the Activity (Mus musculus [14]) was “Non-Toxic” and the Activity [15] was “Active”. The Activity [16] was “Non-Toxic”, the Activity (Lewis lung carcinoma [17]) was “Active” and the Activity [18] was “Dose-Dependent Effect”. For the same molecule, the Activity (Lewis lung carcinoma [19]) was “Active”, the Activity (PBMC [20]) was “Dose-Dependent Effect” and the Activity (Lewis lung carcinoma [21]) was “Active”. For the same molecule, the Ratio IC50 [22] was 25.
